Laboratory results from the NIST ThermoML archive (doi:10.1021/acs.jced.8b00132).
Several values for one entry are separate records, joined by “and”; a condition that tells them apart may be missing. Equal entries are not always repeated.

Settings: Gas, transient hot wire

O=C(C(F)(F)C(F)(F)F)C(F)(C(F)(F)F)C(F)(F)F [dodecafluoro-2-methylpentan-3-one]
Settings	thermal conductivity
499.92 K, 25604 kPa	0.05225 W/m/K
499.93 K, 870 kPa	0.02694 W/m/K
499.93 K, 6552 kPa	0.0387 W/m/K
499.93 K, 13400 kPa	0.04487 W/m/K
499.93 K, 18421 kPa	0.04818 W/m/K
499.94 K, 869 kPa	0.0272 W/m/K
499.94 K, 18421 kPa	0.0482 W/m/K
499.95 K, 5597 kPa	0.03741 W/m/K
499.96 K, 2952 kPa	0.03132 W/m/K
499.96 K, 3620 kPa	0.0341 W/m/K
499.97 K, 25600 kPa	0.05221 W/m/K
499.97 K, 25604 kPa	0.05228 W/m/K
499.98 K, 645 kPa	0.02717 W/m/K
499.99 K, 10173 kPa	0.04254 W/m/K
499.99 K, 13400 kPa	0.04504 W/m/K
499.99 K, 13402 kPa	0.04506 W/m/K
499.99 K, 18421 kPa	0.04841 W/m/K
500 K, 646 kPa	0.02728 W/m/K
500 K, 2952 kPa	0.03119 W/m/K
500 K, 3286 kPa	0.03306 W/m/K and 0.03284 W/m/K
500 K, 6554 kPa	0.03863 W/m/K
500 K, 6555 kPa	0.03872 W/m/K
500 K, 8108 kPa	0.04046 W/m/K
500 K, 10172 kPa	0.04249 W/m/K
500.01 K, 1594 kPa	0.02714 W/m/K
500.01 K, 2129 kPa	0.02838 W/m/K
500.02 K, 1594 kPa	0.02737 W/m/K
500.02 K, 2129 kPa	0.0285 W/m/K
500.02 K, 2565 kPa	0.02947 W/m/K
500.02 K, 2566 kPa	0.0295 W/m/K
500.02 K, 8108 kPa	0.04041 W/m/K
500.02 K, 18425 kPa	0.0483 W/m/K
500.05 K, 419 kPa	0.02753 W/m/K
500.06 K, 419 kPa	0.02752 W/m/K
500.07 K, 10171 kPa	0.04243 W/m/K
500.08 K, 870 kPa	0.02705 W/m/K and 0.02701 W/m/K
500.08 K, 6554 kPa	0.03889 W/m/K and 0.03865 W/m/K
500.08 K, 8107 kPa	0.04045 W/m/K
500.08 K, 18421 kPa	0.04829 W/m/K
500.09 K, 2952 kPa	0.03151 W/m/K
500.1 K, 2952 kPa	0.03143 W/m/K
500.1 K, 8107 kPa	0.04058 W/m/K
500.1 K, 13402 kPa	0.04498 W/m/K
500.12 K, 644 kPa	0.02715 W/m/K
500.13 K, 645 kPa	0.02741 W/m/K
500.13 K, 1594 kPa	0.02735 W/m/K
500.14 K, 2565 kPa	0.0296 W/m/K
500.15 K, 1594 kPa	0.02739 W/m/K
500.15 K, 10171 kPa	0.04243 W/m/K
500.16 K, 419 kPa	0.02764 W/m/K
500.16 K, 10174 kPa	0.04246 W/m/K
500.16 K, 13402 kPa	0.04495 W/m/K
500.17 K, 6553 kPa	0.03885 W/m/K
500.17 K, 8107 kPa	0.04052 W/m/K
500.17 K, 8287 kPa	0.04057 W/m/K
500.17 K, 13401 kPa	0.04512 W/m/K
500.18 K, 6551 kPa	0.03865 W/m/K
500.18 K, 8108 kPa	0.04052 W/m/K
500.18 K, 8283 kPa	0.0406 W/m/K
500.2 K, 419 kPa	0.02743 W/m/K
500.23 K, 871 kPa	0.02696 W/m/K
500.24 K, 872 kPa	0.02702 W/m/K
500.24 K, 2563 kPa	0.02975 W/m/K and 0.02983 W/m/K
500.25 K, 6550 kPa	0.0387 W/m/K
500.25 K, 10172 kPa	0.04247 W/m/K
500.26 K, 6550 kPa	0.0388 W/m/K
500.27 K, 8107 kPa	0.04068 W/m/K and 0.04066 W/m/K
500.27 K, 8290 kPa	0.04063 W/m/K
500.27 K, 8294 kPa	0.04069 W/m/K
500.28 K, 643 kPa	0.02732 W/m/K and 0.02714 W/m/K
500.33 K, 419 kPa	0.02775 W/m/K
500.34 K, 418 kPa	0.02786 W/m/K
500.35 K, 8106 kPa	0.0405 W/m/K
500.36 K, 8300 kPa	0.04074 W/m/K
500.37 K, 8107 kPa	0.04059 W/m/K
500.4 K, 872 kPa	0.02701 W/m/K
500.4 K, 874 kPa	0.02698 W/m/K
500.43 K, 643 kPa	0.02726 W/m/K
500.45 K, 643 kPa	0.0272 W/m/K
500.46 K, 8304 kPa	0.04072 W/m/K
500.46 K, 8307 kPa	0.04066 W/m/K
500.48 K, 417 kPa	0.02764 W/m/K
500.49 K, 417 kPa	0.02771 W/m/K
500.58 K, 8309 kPa	0.04075 W/m/K
